1 compound from ChEMBL document CHEMBL1145787, “Synthesis and structure-activity relationship of N-substituted 4-arylsulfonylpiperidine-4-hydroxamic acids as novel, orally active matrix metalloproteinase inhibitors for the treatment of osteoarthritis” (J Med Chem, 2003) can be followed below.

A short description of assay [1]: In vivo inhibitory activity against Matrix metalloprotease enzyme by dialysis implant assay, value are relative to activity of CGS-27023 (64+/-3) at 25 mg/kg. po. It is filed as functional.
Assay [2] can be described thus: In vivo inhibition of Matrix metalloprotease enzyme by Sponge-wrapped cartilage assay, value are relative to activity of RS-130830 (27+/-3) at 10 mg/kg. po. bid. The format is functional.
Assay [3] deals with Matrix metalloproteinase-9 (Homo sapiens, UniProt P14780). As to the kind of experiment: In vitro inhibitory activity against matrix metalloprotease-9.
Chain of Matrix metalloproteinase-9 (P14780 whole entry): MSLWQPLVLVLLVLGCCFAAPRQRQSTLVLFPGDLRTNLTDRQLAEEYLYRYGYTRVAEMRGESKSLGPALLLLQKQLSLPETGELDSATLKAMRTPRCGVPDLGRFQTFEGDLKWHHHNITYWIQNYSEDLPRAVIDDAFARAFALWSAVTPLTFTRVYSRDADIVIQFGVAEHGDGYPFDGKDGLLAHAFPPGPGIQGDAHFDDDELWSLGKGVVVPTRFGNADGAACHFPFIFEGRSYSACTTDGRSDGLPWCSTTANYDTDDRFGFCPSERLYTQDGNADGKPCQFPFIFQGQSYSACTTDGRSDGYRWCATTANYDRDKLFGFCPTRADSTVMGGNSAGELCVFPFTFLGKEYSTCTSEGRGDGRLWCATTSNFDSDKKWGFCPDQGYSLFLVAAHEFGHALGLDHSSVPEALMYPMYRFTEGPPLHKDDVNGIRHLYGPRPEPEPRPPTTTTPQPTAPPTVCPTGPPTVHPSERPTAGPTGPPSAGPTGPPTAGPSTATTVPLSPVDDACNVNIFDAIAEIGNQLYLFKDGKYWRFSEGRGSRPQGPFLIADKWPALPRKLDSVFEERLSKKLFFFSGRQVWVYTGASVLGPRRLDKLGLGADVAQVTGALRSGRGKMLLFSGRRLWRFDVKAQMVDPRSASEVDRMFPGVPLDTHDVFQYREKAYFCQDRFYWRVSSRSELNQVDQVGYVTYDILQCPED
The target of the next assay is T1, Interstitial collagenase (Homo sapiens, UniProt P03956).
T1 sequence (P03956 whole entry): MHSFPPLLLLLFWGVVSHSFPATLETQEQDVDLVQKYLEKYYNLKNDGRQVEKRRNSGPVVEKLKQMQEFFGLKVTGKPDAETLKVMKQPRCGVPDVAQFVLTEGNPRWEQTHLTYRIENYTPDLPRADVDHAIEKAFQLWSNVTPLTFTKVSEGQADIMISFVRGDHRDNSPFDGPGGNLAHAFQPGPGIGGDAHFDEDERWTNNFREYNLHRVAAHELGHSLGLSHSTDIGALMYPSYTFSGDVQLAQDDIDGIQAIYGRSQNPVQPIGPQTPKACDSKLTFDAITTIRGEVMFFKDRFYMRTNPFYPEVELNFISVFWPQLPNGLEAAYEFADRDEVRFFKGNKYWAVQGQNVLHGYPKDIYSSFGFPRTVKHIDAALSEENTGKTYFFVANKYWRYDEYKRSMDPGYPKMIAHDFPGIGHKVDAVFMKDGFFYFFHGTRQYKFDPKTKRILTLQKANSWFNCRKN
As to the kind of experiment: In vitro inhibitory activity against matrix metalloprotease-1.

Assay [4] deals with Disintegrin and metalloproteinase domain-containing protein 17 (Homo sapiens, UniProt P78536).
Chain of Disintegrin and metalloproteinase domain-containing protein 17 (P78536 whole entry, the tested form may be a part): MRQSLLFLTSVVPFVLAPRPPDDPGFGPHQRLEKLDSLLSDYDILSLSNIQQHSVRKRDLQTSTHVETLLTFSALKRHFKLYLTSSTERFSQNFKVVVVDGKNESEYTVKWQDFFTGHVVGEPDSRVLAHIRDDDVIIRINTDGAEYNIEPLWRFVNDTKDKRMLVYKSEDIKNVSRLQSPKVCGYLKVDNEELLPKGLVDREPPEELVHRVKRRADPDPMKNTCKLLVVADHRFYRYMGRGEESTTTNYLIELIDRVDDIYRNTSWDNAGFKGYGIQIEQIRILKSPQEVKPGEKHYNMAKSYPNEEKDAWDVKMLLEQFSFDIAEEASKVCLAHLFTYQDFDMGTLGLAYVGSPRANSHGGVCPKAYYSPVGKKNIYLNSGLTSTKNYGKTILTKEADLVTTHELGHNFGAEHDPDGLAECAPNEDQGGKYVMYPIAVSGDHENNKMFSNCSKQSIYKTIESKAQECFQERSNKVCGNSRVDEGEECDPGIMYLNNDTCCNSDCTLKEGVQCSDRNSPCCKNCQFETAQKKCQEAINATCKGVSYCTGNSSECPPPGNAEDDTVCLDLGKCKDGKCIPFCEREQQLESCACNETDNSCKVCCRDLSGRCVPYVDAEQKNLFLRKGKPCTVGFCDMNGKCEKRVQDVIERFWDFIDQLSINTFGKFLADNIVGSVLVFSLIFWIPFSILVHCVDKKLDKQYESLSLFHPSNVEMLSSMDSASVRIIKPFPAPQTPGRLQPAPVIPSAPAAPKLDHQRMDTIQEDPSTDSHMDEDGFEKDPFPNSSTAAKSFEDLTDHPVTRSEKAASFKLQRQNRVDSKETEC
The next assay has as its target Collagenase 3 (Homo sapiens, UniProt P45452).

For orientation: inhibition in vivo means the change of the read-out against control, counted positive when it falls. A low value points to little suppression. By IC50 is commonly meant the concentration needed to halve the response being measured. A lower IC50 goes with higher potency.

Molecules are shown by their SMILES.

Regarding `CCC(CC)Oc1ccc(S(=O)(=O)C2(C(=O)NO)CCN(Cc3ccccc3)CC2)cc1`, in assay [1], the inhibition in vivo at 25 mg/kg was found to be 68%. In addition, the inhibition in vivo at 10 mg/kg in assay [2] is 27%. Further, the concentration for half-maximal inhibition (IC50) in assay [3] amounted to 14 nM; against Interstitial collagenase, 3160 nM; in assay [4], 39 nM; at Collagenase 3, 5 nM.
